Experimental data as given in ChEMBL document CHEMBL5149994, “Anticancer potential of indirubins in medicinal chemistry: Biological activity, structural modification, and structure-activity relationship” (Eur J Med Chem, 2021).

Tests used:
[1] = target: Glycogen synthase kinase-3 (Sus scrofa, UniProt B2LUN4+I6LNT8); assay: Inhibition of porcine brain GSK-3alpha/beta incubated for 30 mins in presence of [33p]-gamma ATP by scintillation counter analysis
LoVo = assay: Cytotoxicity against human LoVo cells assessed as cell growth inhibition by MTT assay; type: functional, cell-based
[2] = Inhibition of starfish oocyte CDK1/Cyclin B using histone H1 as substrate incubated for 10 mins in presence of [gamma-32P]ATP by scintillation counter analysis; design: species or system Marthasterias glacialis
LNCaP = assay: Cytotoxicity against human LNCaP cells assessed as cell growth inhibition by MTT assay; type: functional, cell-based
[3] = target: Cyclin-dependent kinase 5/CDK5 activator 1 (Homo sapiens, UniProt Q00535); assay: Inhibition of GST-fused CDK5/p25 (unknown origin); type: protein-complex assay
Cyclin-dependent kinase 5/CDK5 activator 1, sequence (Q00535 whole entry, the tested form may be a part): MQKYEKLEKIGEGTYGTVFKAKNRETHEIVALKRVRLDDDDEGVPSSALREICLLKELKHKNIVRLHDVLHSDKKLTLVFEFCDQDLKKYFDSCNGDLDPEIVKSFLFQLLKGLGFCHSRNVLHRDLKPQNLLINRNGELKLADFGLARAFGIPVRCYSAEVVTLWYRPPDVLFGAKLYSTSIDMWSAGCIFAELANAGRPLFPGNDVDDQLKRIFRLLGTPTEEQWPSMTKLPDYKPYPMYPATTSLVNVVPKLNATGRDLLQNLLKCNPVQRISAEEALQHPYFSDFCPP
Cyclin-dependent kinase 5/CDK5 activator 1, sequence (Q15078 whole entry, further chain, the tested form may be a part): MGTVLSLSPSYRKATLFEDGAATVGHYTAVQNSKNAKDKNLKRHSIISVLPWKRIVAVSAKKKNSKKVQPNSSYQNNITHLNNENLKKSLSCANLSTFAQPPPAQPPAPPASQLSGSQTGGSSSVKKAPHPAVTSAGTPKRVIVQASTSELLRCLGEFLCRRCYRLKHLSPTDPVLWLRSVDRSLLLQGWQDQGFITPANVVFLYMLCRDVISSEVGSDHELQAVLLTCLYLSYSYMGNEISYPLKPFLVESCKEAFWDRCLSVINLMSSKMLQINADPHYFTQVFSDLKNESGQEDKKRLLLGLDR

MCF7 [4] = assay: Cytotoxicity against human MCF7 cells assessed as cell growth inhibition by MTT assay; type: functional, cell-based
OCI-AML2 [5] = assay: Antiproliferative activity against human OCI-AML2 cells assessed as cell growth inhibition measured after 72 hrs by MTT assay; type: functional, cell-based; details: OCI-AML2, 72 h
K562 [6] = assay: Antiproliferative activity against imatinib treated human K562 cells assessed as cell growth inhibition measured after 72 hrs by MTT assay; type: functional, cell-based; details: K562, 72 h
OCI-AML2 [7] = assay: Antiproliferative activity against imatinib and Ara-C resistant human OCI-AML2 cells assessed as cell growth inhibition measured after 72 hrs by MTT assay; type: functional, cell-based; details: OCI-AML2, 72 h
K562 [8] = assay: Antiproliferative activity against human K562 cells assessed as cell growth inhibition measured after 72 hrs by MTT assay; type: functional, cell-based; details: K562, 72 h
[9] = target: Hepatocyte growth factor receptor (Homo sapiens, UniProt P08581); assay: Inhibition of c-met (unknown origin) by TR-FRET assay
[10] = target: T1, Tyrosine-protein kinase JAK2 (Homo sapiens, UniProt O60674); assay: Inhibition of JAK2 (unknown origin) by TR-FRET assay
T1 sequence (O60674 whole entry): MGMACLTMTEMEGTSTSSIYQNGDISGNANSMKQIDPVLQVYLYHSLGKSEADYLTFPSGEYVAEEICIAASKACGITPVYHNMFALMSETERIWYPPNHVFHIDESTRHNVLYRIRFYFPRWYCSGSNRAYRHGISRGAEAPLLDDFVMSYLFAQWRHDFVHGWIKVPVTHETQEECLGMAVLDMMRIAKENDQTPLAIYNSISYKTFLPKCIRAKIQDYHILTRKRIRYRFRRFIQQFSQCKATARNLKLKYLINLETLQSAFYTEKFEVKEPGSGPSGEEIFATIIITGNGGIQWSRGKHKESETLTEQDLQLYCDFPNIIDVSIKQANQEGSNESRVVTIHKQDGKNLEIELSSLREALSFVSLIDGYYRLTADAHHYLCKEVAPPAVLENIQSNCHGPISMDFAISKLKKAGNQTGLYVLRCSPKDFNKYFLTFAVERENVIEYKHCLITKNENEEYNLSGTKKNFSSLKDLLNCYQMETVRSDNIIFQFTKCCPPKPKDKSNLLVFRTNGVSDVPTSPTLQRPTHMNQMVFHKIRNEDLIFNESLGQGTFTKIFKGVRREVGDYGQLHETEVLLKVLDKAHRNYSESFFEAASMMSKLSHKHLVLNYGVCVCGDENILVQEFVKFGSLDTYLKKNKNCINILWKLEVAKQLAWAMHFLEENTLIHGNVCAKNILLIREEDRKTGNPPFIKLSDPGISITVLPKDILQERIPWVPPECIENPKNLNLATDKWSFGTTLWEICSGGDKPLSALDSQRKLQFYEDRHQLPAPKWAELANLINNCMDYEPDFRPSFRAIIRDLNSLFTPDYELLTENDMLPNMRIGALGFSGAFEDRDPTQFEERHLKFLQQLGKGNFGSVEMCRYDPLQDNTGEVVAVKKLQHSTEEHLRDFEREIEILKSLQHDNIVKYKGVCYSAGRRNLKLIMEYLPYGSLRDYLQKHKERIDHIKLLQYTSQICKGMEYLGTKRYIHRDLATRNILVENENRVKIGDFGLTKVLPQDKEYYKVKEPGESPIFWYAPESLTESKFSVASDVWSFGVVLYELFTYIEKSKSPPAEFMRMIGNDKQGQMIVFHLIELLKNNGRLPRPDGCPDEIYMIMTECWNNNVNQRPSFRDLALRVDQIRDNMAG

[11] = target: ALK tyrosine kinase receptor (Homo sapiens, UniProt Q9UM73); assay: Inhibition of ALK (unknown origin) by TR-FRET assay
HT-29 = assay: Antiproliferative activity against human HT-29 cells assessed as cell growth inhibition measured after 72 hrs by tetrazolium staining based assay; type: functional; details: HT-29, 72 h
[12] = target: Glycogen synthase kinase-3 (Homo sapiens, UniProt P49840+P49841); assay: Inhibition of GSK3 (unknown origin); type: protein assay
K-562R = assay: Antiproliferative activity against imatinib-resistant human K-562R cells assessed as cell growth inhibition measured after 72 hrs by MTT assay; type: functional, cell-based
K562 [13] = assay: Antitumor activity against human K562 cells xenografted in BALB/c mouse assessed as reduction in tumour volume at 6 mg/kg, ip treated every other day for 2 weeks relative to control; type: functional; design: scale not given: the % may be the effect or the level left
[14] = target: Tyrosine-protein kinase JAK1 (Homo sapiens, UniProt P23458); assay: Inhibition of recombinant JAK1 (unknown origin)
Tyrosine-protein kinase JAK1, sequence (P23458 whole entry): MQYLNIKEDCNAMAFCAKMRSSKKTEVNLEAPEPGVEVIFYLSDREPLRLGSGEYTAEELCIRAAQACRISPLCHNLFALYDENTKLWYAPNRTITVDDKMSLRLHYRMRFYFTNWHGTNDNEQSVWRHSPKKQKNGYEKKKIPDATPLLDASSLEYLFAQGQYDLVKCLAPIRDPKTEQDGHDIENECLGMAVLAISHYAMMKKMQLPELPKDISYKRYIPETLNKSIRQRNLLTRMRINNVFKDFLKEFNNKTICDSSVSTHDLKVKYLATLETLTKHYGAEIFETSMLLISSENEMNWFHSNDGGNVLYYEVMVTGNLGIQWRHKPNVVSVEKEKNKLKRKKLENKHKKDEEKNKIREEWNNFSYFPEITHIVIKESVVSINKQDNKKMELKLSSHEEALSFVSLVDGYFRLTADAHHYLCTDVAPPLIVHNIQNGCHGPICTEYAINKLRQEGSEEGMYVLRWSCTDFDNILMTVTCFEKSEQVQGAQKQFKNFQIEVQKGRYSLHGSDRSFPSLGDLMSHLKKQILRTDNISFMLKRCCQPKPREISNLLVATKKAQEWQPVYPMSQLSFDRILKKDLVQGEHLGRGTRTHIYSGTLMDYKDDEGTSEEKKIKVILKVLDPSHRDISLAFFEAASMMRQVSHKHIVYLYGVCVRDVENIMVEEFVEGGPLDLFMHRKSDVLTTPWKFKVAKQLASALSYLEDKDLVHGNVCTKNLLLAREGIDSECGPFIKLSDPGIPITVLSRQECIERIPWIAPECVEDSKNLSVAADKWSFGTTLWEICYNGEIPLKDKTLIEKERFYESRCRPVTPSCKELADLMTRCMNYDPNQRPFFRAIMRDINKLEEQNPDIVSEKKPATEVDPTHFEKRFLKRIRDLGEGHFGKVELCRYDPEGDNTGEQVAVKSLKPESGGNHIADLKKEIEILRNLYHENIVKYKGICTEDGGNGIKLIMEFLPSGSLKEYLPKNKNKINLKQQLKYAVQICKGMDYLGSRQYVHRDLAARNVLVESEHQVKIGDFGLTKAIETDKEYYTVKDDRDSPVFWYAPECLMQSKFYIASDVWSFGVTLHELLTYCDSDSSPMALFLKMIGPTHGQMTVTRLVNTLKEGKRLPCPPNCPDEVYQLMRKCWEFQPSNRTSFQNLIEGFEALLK

BXPC-3 = assay: Antiproliferative activity against human BXPC-3 cells assessed as cell growth inhibition measured after 42 hrs by MTS assay; type: functional, cell-based; details: BXPC-3, 42 h
MIA PaCa-2 = assay: Antiproliferative activity against human MIA PaCa-2 cells assessed as cell growth inhibition measured after 42 hrs by MTS assay; type: functional, cell-based; details: MIA PaCa-2, 42 h
PANC-1 = assay: Antiproliferative activity against human PANC-1 cells assessed as cell growth inhibition measured after 42 hrs by MTS assay; type: functional, cell-based; details: PANC-1, 42 h
[15] = target: Non-receptor tyrosine-protein kinase TYK2 (Homo sapiens, UniProt P29597); assay: Inhibition of recombinant Tyk2 (unknown origin)
[16] = target: T1, Tyrosine-protein kinase JAK2; assay: Inhibition of recombinant JAK2 (unknown origin)
[17] = target: Tyrosine-protein kinase Lyn (Homo sapiens, UniProt P07948); assay: Inhibition of recombinant Lyn (unknown origin)
Tyrosine-protein kinase Lyn, sequence (P07948 whole entry): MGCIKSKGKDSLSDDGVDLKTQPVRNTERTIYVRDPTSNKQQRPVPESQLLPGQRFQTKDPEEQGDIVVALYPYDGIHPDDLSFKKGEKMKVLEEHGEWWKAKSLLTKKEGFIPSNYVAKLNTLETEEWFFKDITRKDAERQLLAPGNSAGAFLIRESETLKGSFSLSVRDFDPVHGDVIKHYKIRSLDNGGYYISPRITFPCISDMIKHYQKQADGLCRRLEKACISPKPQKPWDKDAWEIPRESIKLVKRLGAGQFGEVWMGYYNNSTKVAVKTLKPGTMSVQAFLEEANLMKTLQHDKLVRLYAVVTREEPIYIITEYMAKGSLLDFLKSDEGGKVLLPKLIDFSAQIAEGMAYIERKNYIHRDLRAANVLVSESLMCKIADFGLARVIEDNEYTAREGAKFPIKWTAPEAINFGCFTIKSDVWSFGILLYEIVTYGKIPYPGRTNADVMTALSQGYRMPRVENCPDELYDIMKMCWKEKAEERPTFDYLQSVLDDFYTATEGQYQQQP

[18] = target: Proto-oncogene tyrosine-protein kinase Src (Homo sapiens, UniProt P12931); assay: Inhibition of recombinant c-Src (unknown origin)
Proto-oncogene tyrosine-protein kinase Src, sequence (P12931 2-536 limits assumed): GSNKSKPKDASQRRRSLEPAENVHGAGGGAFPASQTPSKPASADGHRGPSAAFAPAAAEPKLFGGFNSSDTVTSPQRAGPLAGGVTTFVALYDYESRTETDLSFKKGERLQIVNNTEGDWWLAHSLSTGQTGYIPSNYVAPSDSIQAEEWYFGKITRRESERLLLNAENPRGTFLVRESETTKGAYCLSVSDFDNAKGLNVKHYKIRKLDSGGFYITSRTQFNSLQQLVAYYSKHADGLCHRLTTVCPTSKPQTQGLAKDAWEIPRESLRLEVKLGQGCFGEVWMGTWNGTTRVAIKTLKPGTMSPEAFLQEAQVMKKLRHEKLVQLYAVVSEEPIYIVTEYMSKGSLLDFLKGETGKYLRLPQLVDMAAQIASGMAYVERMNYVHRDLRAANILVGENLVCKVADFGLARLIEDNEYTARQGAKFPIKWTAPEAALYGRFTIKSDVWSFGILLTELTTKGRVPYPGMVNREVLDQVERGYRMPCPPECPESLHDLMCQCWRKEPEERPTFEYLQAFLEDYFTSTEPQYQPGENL

[19] = target: Tyrosine-protein kinase HCK (Homo sapiens, UniProt P08631); assay: Inhibition of recombinant Hck (unknown origin)
Aurora kinase B = Aurora kinase B (Homo sapiens, UniProt Q96GD4); assay: Inhibition of Aurora B (unknown origin)
Aurora kinase B, sequence (Q96GD4 whole entry): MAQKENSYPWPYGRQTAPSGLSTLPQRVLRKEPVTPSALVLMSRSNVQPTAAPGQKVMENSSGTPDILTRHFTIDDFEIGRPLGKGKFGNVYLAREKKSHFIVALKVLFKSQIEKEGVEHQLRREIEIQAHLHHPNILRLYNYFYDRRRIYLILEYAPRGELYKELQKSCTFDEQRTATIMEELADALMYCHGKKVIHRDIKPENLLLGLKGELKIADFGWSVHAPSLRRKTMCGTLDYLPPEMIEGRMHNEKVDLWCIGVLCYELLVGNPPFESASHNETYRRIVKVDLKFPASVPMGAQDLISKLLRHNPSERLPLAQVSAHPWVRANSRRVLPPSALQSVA

Aurora kinase A = Aurora kinase A (Homo sapiens, UniProt O14965); assay: Inhibition of Aurora A (unknown origin)
Aurora kinase A, sequence (O14965 whole entry): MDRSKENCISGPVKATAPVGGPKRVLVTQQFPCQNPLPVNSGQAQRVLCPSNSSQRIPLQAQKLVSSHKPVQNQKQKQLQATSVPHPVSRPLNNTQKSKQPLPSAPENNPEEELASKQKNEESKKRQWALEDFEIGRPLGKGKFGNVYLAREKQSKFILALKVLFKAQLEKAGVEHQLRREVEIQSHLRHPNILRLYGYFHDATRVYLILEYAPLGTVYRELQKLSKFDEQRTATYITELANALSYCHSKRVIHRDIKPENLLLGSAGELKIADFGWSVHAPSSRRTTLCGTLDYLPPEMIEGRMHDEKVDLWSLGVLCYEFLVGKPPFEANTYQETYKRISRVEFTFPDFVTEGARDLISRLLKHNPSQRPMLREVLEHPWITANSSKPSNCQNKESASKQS

Aurora kinase C = Aurora kinase C (Homo sapiens, UniProt Q9UQB9); assay: Inhibition of Aurora C (unknown origin)
Aurora kinase C, sequence (Q9UQB9 whole entry): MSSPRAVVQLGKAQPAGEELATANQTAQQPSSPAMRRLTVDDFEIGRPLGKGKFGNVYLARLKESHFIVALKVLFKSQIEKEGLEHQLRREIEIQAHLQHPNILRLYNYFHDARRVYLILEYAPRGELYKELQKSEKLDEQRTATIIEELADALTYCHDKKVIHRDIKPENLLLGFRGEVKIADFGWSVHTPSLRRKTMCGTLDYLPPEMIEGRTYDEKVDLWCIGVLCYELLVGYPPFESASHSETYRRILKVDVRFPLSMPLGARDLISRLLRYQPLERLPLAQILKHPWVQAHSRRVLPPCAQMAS

HCT-116 = assay: Antiproliferative activity against human HCT-116 cells assessed as cell growth inhibition; type: functional, cell-based
LXFL 529 = assay: Antiproliferative activity against human LXFL 529 cells assessed as cell growth inhibition; type: functional, cell-based
MCF7 [20] = assay: Antiproliferative activity against human MCF7 cells assessed as cell growth inhibition; type: functional, cell-based

CN1C(=O)/C(=C2\Nc3ccccc3\C2=N/O)c2ccccc21
IC50 [1]: > 100000 nM
IC50 (LoVo): > 100000 nM
IC50 [2]: 73000 nM
IC50 (LNCaP): 68900 nM
IC50 [3]: > 100000 nM
IC50 (MCF7 [4]): 58600 nM

O=C1Nc2ccc(NC(=O)C(c3ccccc3)c3ccccc3)cc2/C1=C1/Nc2ccccc2/C1=N\O
IC50 (OCI-AML2 [5]): 2420 nM
IC50 (K562 [6]): 3650 nM
IC50 (OCI-AML2 [7]): 2360 nM
IC50 (K562 [8]): 2910 nM

O=C1Nc2ccc(C(=O)N3CCCCC3)cc2/C1=C1/Nc2ccccc2/C1=N\O
IC50 [9]: > 10000 nM
IC50 [10]: > 10000 nM
IC50 [11]: > 10000 nM
IC50 (HT-29): 4220 nM

Cl.Cl.O=C1Nc2cc(Br)ccc2/C1=C1/Nc2ccccc2/C1=N\OCCN1CCNCC1
IC50 [12]: 1.3 nM

O=C1Nc2ccc([N+](=O)[O-])cc2/C1=C1/Nc2ccc(O)cc2/C1=N\O
IC50 (K-562R): 783 nM
Activity (K562 [13]): 90%

COc1ccc2c(c1)/C(=C1/Nc3ccccc3/C1=N\OCC(O)CO)C(=O)N2 (configuration not stated)
IC50 [14]: 10.7 nM
IC50 (BXPC-3): 760 nM
IC50 (MIA PaCa-2): 760 nM
IC50 (PANC-1): 760 nM
IC50 [15]: 10.7 nM
IC50 [16]: 10.7 nM
IC50 [17]: 10.7 nM
IC50 [18]: 10.7 nM
IC50 [19]: 10.7 nM

CC(=O)O/N=C1/C(=C2/C(=O)Nc3c(Br)cccc32)Nc2ccccc21
IC50 (Aurora kinase B): 8000 nM
IC50 (Aurora kinase A): 20000 nM
IC50 (Aurora kinase C): 100 nM

COc1ccc2c(c1)/C(=C1/Nc3ccccc3/C1=N\OCCO[C@@H]1O[C@H](CO)[C@@H](O)[C@H](O)[C@H]1O)C(=O)N2
IC50 (HCT-116): 500 nM
IC50 (LXFL 529): 500 nM
IC50 (MCF7 [20]): 1200 nM
